Measured values: ChEMBL document CHEMBL1130188, “Synthesis and stereochemical structure-activity relationships of 1,3-dioxoperhydropyrido[1,2-c]pyrimidine derivatives: potent and selective cholecystokinin-A receptor antagonists” (J Med Chem, 1997)

Experiments:
[1] = species on record: Rattus norvegicus; experiment: Compound was tested for inhibition of amylase release stimulated by CCK-8 (0.5 nM) in dispersed pancreatic acini.
[2] = biological target: T1, Cholecystokinin receptor type A (Rattus norvegicus, UniProt P30551); experiment: Inhibition of [3H]pCCK-8 specific binding to Cholecystokinin type A receptor of rat pancreas
T1 sequence (P30551 whole entry): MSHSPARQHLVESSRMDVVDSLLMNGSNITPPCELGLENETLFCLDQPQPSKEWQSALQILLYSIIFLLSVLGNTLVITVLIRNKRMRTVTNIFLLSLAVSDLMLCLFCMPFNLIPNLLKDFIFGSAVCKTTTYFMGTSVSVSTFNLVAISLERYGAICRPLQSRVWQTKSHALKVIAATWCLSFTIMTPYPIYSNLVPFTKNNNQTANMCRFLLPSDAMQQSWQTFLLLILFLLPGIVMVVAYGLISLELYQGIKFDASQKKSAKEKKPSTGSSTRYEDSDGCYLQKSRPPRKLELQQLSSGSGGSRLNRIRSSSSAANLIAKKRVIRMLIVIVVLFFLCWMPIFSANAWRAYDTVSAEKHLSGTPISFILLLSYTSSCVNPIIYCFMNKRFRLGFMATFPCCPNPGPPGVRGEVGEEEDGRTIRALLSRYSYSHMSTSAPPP

[3] = biological target: T2, Gastrin/cholecystokinin type B receptor (Rattus norvegicus, UniProt P30553); experiment: Inhibition of [3H]- pCCK-8 binding to Cholecystokinin type B receptor of rat cerebral cortex membranes; assay type: cell membranes, Membrane
T2 sequence (P30553 whole entry): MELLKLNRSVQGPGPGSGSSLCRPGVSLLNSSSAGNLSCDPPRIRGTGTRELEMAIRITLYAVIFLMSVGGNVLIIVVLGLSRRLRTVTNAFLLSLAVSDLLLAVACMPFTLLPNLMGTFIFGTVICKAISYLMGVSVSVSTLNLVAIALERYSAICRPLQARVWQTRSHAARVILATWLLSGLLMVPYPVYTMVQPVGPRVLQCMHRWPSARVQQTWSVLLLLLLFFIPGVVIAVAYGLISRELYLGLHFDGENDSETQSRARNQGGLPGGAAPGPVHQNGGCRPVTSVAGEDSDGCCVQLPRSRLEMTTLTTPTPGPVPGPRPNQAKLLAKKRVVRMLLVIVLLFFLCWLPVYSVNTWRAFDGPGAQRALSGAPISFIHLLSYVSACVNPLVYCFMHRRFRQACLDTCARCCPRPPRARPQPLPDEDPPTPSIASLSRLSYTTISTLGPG

Structure (SMILES)	Ki [2] [nM]	Ki [3] [nM]	IC50 [1] [nM]
CN1C(=O)[C@H](NC(=O)c2cc3ccccc3[nH]2)N=C(c2ccccc2)c2ccccc21	–	–	25.4
CC(C)(C)OC(=O)N[C@H](Cc1c[nH]c2ccccc12)C(=O)N[C@H]1CCCN2C(=O)N(Cc3ccccc3)C(=O)C[C@@H]12	298	> 5000	–
COC(=O)[C@@]1(Cc2ccccc2)C[C@@H]2[C@@H](NC(=O)[C@H](Cc3c[nH]c4ccccc34)NC(=O)OC(C)(C)C)CCCN2C1=O	–	> 5000	–
CC(C)(C)OC(=O)N[C@H](Cc1c[nH]c2ccccc12)C(=O)N[C@@H]1CCCN2C(=O)N(Cc3ccccc3)C(=O)C[C@H]12	–	> 5000	–
CC(C)(C)OC(=O)N[C@H](Cc1c[nH]c2ccccc12)C(=O)N[C@H]1CCCN2C(=O)N(Cc3ccccc3)C(=O)C[C@H]12	> 5000	> 5000	–
CC(C)(C)OC(=O)N[C@@H](Cc1c[nH]c2ccccc12)C(=O)N[C@H]1CCCN2C(=O)N(Cc3ccccc3)C(=O)C[C@H]12	572	> 5000	–
CC(C)(C)OC(=O)N[C@@H](Cc1c[nH]c2ccccc12)C(=O)N[C@H]1CCCN2C(=O)N(Cc3ccccc3)C(=O)C[C@@H]12	0.62	> 5000	21.3

Further lines, with some results ahead:

Ki [2] [nM]	Ki [3] [nM]	Structure (SMILES)	IC50 [1] [nM]
10.6	2730	CC(C)(C)OC(=O)N[C@@H](Cc1c[nH]c2ccccc12)C(=O)N[C@@H]1CCCN2C(=O)N(Cc3ccccc3)C(=O)C[C@H]12	201
> 5000	1890	CC(C)(C)OC(=O)N[C@H](Cc1c[nH]c2ccccc12)C(=O)N[C@@H]1CCCN2C(=O)N(Cc3ccccc3)C(=O)C[C@@H]12	–
> 5000	1560	COC(=O)[C@]1(Cc2ccccc2)C[C@@H]2[C@@H](NC(=O)[C@@H](Cc3c[nH]c4ccccc34)NC(=O)OC(C)(C)C)CCCN2C1=O	–
2890	2910	CC(C)(C)OC(=O)N[C@@H](Cc1c[nH]c2ccccc12)C(=O)N[C@@H]1CCCN2C(=O)N(Cc3ccccc3)C(=O)C[C@@H]12 [IQM-95333]	–
